Converted amounts (≈) assume the structure as drawn.
How the values were obtained:
Plasmodium falciparum [1] = test: Antimalarial activity: Asexual Blood Stage Plasmodium falciparum 3D7 IC50 (uM); assay type: functional, organism-based
Plasmodium falciparum [2] = test: Antimalarial activity: Gametocytes Plasmodium falciparum NF54 Gametocytes Stage V IC50 (uM); assay type: functional, organism-based
HepG2 [3] = test: HepG2 inhibition at 10 uM (%) Cytotoxicity; assay type: functional; details: Homo sapiens
Plasmodium falciparum [4] = test: Antimalarial activity: Asexual Blood Stage Plasmodium falciparum Dd2 IC50 (uM); assay type: functional, organism-based
[5] = system: Mycobacterium tuberculosis; test: AntiMycobacterium tuberculosis activity 1-week GAST/Fe MIC (uM); assay type: functional; details: 168 h
[6] = system: Mycobacterium tuberculosis; test: AntiMycobacterium tuberculosis activity 2-week GAST/Fe MIC (uM); assay type: functional; details: 336 h
[7] = system: Mycobacterium tuberculosis; test: AntiMycobacterium tuberculosis activity 1-week 7H9/ADC/Tw MIC (uM); assay type: functional; details: 168 h
[8] = system: Mycobacterium tuberculosis; test: AntiMycobacterium tuberculosis activity 2-week 7H9/ADC/Tw MIC (uM); assay type: functional; details: 336 h
[9] = system: Mycobacterium tuberculosis; test: AntiMycobacterium tuberculosis activity 2-week Alamar Blue 7H9/ADC/Tw MIC (uM); assay type: functional; details: 336 h
[10] = system: Mycobacterium tuberculosis; test: AntiMycobacterium tuberculosis activity 1-week 7H9/glucose/BSA/Tx MIC (uM); assay type: functional; details: 168 h
[11] = system: Mycobacterium tuberculosis; test: AntiMycobacterium tuberculosis activity 2-week 7H9/glucose/BSA/Tx MIC (uM); assay type: functional; details: 336 h
[12] = system: Mycobacterium tuberculosis; test: AntiMycobacterium tuberculosis activity 1-week 7H9/DPPC/cholesterol/BSA/Tx MIC (uM); assay type: functional; details: 168 h
[13] = system: Mycobacterium tuberculosis; test: AntiMycobacterium tuberculosis activity 2-week 7H9/DPPC/cholesterol/BSA/Tx MIC (uM); assay type: functional; details: 336 h
[14] = system: Mycobacterium tuberculosis; test: AntiMycobacterium tuberculosis activity 1-week 7H9/cholesterol/BSA/Tx MIC (uM); assay type: functional; details: 168 h
[15] = system: Mycobacterium tuberculosis; test: AntiMycobacterium tuberculosis activity 2-week Alamar Blue 7H9/cholesterol/BSA/Tx MIC (uM); assay type: functional; details: 336 h
[16] = system: Mycobacterium tuberculosis; test: (§1) AntiMycobacterium tuberculosis activity day 10 in 7H9/2.5mM butyrate/pH6/0.1mM nitrite MIC90 (uM); assay type: functional; details: 240 h
[17] = system: Mycobacterium tuberculosis; test: AntiMycobacterium tuberculosis activity day 21 in 7H9/2.5mM butyrate/pH6/0.1mM nitrite MIC90 (uM); assay type: functional; details: 504 h
[18] = system: Mycobacterium tuberculosis; test: as §1; assay type: functional; details: 240 h; remark: listed apart in the source
[19] = system: Mycobacterium tuberculosis; test: AntiMycobacterium tuberculosis activity day 21 MIC99 in 7H9/2.5mM butyrate/pH6/0.1mM nitrite MIC99 (uM); assay type: functional; details: 504 h
HepG2 [20] = test: HepG2 galactose CC50 (uM) Cytotoxicity; assay type: functional; details: Homo sapiens, HepG2
HepG2 [21] = test: HepG2 glucose CC50 (uM) Cytotoxicity; assay type: functional; details: Homo sapiens, HepG2

Question: Which IC50 (Plasmodium falciparum [1]) does the source give for `Cc1cc(C)nc(-n2nc(C)cc2Nc2ccccc2)n1` here?
Answer: > 2000 nM

Question: What about the IC50 (Plasmodium falciparum [2]) of the same compound?
Answer: 220 nM

Question: What about the inhibition at 10 µM (HepG2 [3]) of the same compound?
Answer: 7%

Question: With `Cc1ccc(-c2nc(CN(Cc3ccccn3)C(C)C)cs2)o1` as the compound, how does the IC50 (Plasmodium falciparum [1]) read?
Answer: > 2000 nM

Question: And the IC50 (Plasmodium falciparum [4])?
Answer: > 2000 nM

Question: And the IC50 (Plasmodium falciparum [2])?
Answer: 450 nM

Question: And the inhibition at 10 µM (HepG2 [3])?
Answer: 47%

Question: What does the source list for `COc1cc(Br)cc2cc(C(=O)Nc3cccc(C(F)(F)F)c3)c(=O)oc12`?
Answer: MIC [5]: 1.2 µM (≈ 0.531 µg/mL); MIC [6]: 4.7 µM (≈ 2.08 µg/mL); MIC [7]: 50 µM (≈ 22.1 µg/mL); MIC [8]: > 50 µM; MIC [9]: > 50 µM; MIC [10]: 1.56 µM (≈ 0.69 µg/mL); MIC [11]: 9.4 µM (≈ 4.16 µg/mL); MIC [12]: 2.3 µM (≈ 1.02 µg/mL); MIC [13]: 9.4 µM (≈ 4.16 µg/mL); MIC [14]: 6.25 µM (≈ 2.76 µg/mL); MIC [15]: 12.5 µM (≈ 5.53 µg/mL); MIC90 [16]: 1.5 µM (≈ 0.663 µg/mL); MIC90 [17]: 12.5 µM (≈ 5.53 µg/mL); MIC90 [18]: 12.5 µM (≈ 5.53 µg/mL); MIC [19]: 12.5 µM (≈ 5.53 µg/mL); CC50 (HepG2 [20]): > 50000 nM; CC50 (HepG2 [21]): > 50000 nM

Question: How did the IC50 (Plasmodium falciparum [1]) turn out when `O=C(Nc1nc(-c2ccccn2)cs1)C1CC1c1ccccc1F` (stereo not given) was run?
Answer: > 2000 nM

Question: And the IC50 (Plasmodium falciparum [4])?
Answer: > 2000 nM

Question: What about the IC50 (Plasmodium falciparum [2]) of the same compound?
Answer: 520 nM

Question: And the inhibition at 10 µM (HepG2 [3])?
Answer: 25%

Question: With `CCCn1c(NC(=O)c2ccc3ccccc3n2)nc2ccccc21` as the compound, how does the IC50 (Plasmodium falciparum [1]) read?
Answer: > 2000 nM

Question: What about the IC50 (Plasmodium falciparum [4]) of the same compound?
Answer: > 2000 nM

Question: What about the IC50 (Plasmodium falciparum [2]) of the same compound?
Answer: 560 nM

Question: What about the inhibition at 10 µM (HepG2 [3]) of the same compound?
Answer: 24%

Question: How did the MIC [5] turn out when `CN1CCN(c2cc(-c3ccc(F)cc3)nc(-c3ccncc3)n2)CC1` was run?
Answer: 19 µM (≈ 6.64 µg/mL)

Question: What about the MIC [6] of the same compound?
Answer: 12.5 µM (≈ 4.37 µg/mL)

Question: And the MIC [7]?
Answer: 37 µM (≈ 12.9 µg/mL)

Question: And the MIC [8]?
Answer: 25 µM (≈ 8.74 µg/mL)

Question: And the MIC [9]?
Answer: 12.5 µM (≈ 4.37 µg/mL)

Question: What about the MIC [10] of the same compound?
Answer: 12.5 µM (≈ 4.37 µg/mL)

Question: And the MIC [11]?
Answer: 9.4 µM (≈ 3.28 µg/mL)

Question: And the MIC [12]?
Answer: 6.25 µM (≈ 2.18 µg/mL)

Question: And the MIC [13]?
Answer: 6.25 µM (≈ 2.18 µg/mL)

Question: And the MIC [14]?
Answer: 12.5 µM (≈ 4.37 µg/mL)

Question: And the MIC [15]?
Answer: 6.25 µM (≈ 2.18 µg/mL)

Question: What about the MIC90 [16] of the same compound?
Answer: 6.25 µM (≈ 2.18 µg/mL)

Question: And the MIC90 [17]?
Answer: 12.5 µM (≈ 4.37 µg/mL)

Question: What about the MIC90 [18] of the same compound?
Answer: > 50 µM

Question: And the MIC [19]?
Answer: > 50 µM

Question: And the CC50 (HepG2 [20])?
Answer: > 50000 nM

Question: And the CC50 (HepG2 [21])?
Answer: > 50000 nM

Question: For `COc1cc(CN2CCC3(C=Cc4ccccc43)CC2)cc2c1OCO2`, which MIC [5] is on record?
Answer: 0.6 µM (≈ 0.21 µg/mL)

Question: And the MIC [6]?
Answer: 0.78 µM (≈ 0.273 µg/mL)

Question: And the MIC [7]?
Answer: 1.2 µM (≈ 0.419 µg/mL)

Question: What about the MIC [8] of the same compound?
Answer: 0.78 µM (≈ 0.273 µg/mL)

Question: What about the MIC [9] of the same compound?
Answer: 0.78 µM (≈ 0.273 µg/mL)

Question: And the MIC [10]?
Answer: 2.3 µM (≈ 0.804 µg/mL)

Question: And the MIC [11]?
Answer: 2.3 µM (≈ 0.804 µg/mL)

Question: What about the MIC [12] of the same compound?
Answer: 1.56 µM (≈ 0.545 µg/mL)

Question: And the MIC [13]?
Answer: 2.3 µM (≈ 0.804 µg/mL)

Question: What about the MIC [14] of the same compound?
Answer: 1.56 µM (≈ 0.545 µg/mL)

Question: What about the MIC [15] of the same compound?
Answer: 2.3 µM (≈ 0.804 µg/mL)

Question: And the MIC90 [16]?
Answer: 6.25 µM (≈ 2.18 µg/mL)

Question: And the MIC90 [17]?
Answer: 6.25 µM (≈ 2.18 µg/mL)

Question: What about the MIC90 [18] of the same compound?
Answer: 12.5 µM (≈ 4.37 µg/mL)

Question: What about the MIC [19] of the same compound?
Answer: 12.5 µM (≈ 4.37 µg/mL)

Question: What about the CC50 (HepG2 [20]) of the same compound?
Answer: > 50000 nM

Question: What about the CC50 (HepG2 [21]) of the same compound?
Answer: > 50000 nM

Question: For `CS(=O)(=O)Cc1nc2ccccc2oc1=O`, which MIC [5] is on record?
Answer: 0.78 µM (≈ 0.187 µg/mL)

Question: What about the MIC [6] of the same compound?
Answer: 1.56 µM (≈ 0.373 µg/mL)

Question: And the MIC [7]?
Answer: 19 µM (≈ 4.55 µg/mL)

Question: What about the MIC [8] of the same compound?
Answer: 9.4 µM (≈ 2.25 µg/mL)

Question: And the MIC [9]?
Answer: 6.25 µM (≈ 1.5 µg/mL)

Question: What about the MIC [10] of the same compound?
Answer: 9.4 µM (≈ 2.25 µg/mL)

Question: And the MIC [11]?
Answer: 9.4 µM (≈ 2.25 µg/mL)

Question: And the MIC [12]?
Answer: 6.25 µM (≈ 1.5 µg/mL)

Question: What about the MIC [13] of the same compound?
Answer: 6.25 µM (≈ 1.5 µg/mL)

Question: What about the MIC [14] of the same compound?
Answer: 6.25 µM (≈ 1.5 µg/mL)

Question: What about the MIC [15] of the same compound?
Answer: 6.25 µM (≈ 1.5 µg/mL)

Question: What about the MIC90 [16] of the same compound?
Answer: 3.12 µM (≈ 0.746 µg/mL)

Question: What about the MIC90 [17] of the same compound?
Answer: 3.12 µM (≈ 0.746 µg/mL)

Question: And the MIC90 [18]?
Answer: 12.5 µM (≈ 2.99 µg/mL)

Question: What about the MIC [19] of the same compound?
Answer: 12.5 µM (≈ 2.99 µg/mL)

Question: What about the CC50 (HepG2 [20]) of the same compound?
Answer: > 50000 nM

Question: What about the CC50 (HepG2 [21]) of the same compound?
Answer: > 50000 nM

Question: For `O=C(c1ccco1)N(CCCn1ccnc1)c1nc2c(Cl)cccc2s1`, which MIC [5] is on record?
Answer: 25 µM (≈ 9.67 µg/mL)

Question: And the MIC [6]?
Answer: 37 µM (≈ 14.3 µg/mL)

Question: And the MIC [7]?
Answer: ≥ 50 µM

Question: And the MIC [8]?
Answer: 50 µM (≈ 19.3 µg/mL)

Question: What about the MIC [9] of the same compound?
Answer: 25 µM (≈ 9.67 µg/mL)

Question: What about the MIC [10] of the same compound?
Answer: 50 µM (≈ 19.3 µg/mL)

Question: What about the MIC [11] of the same compound?
Answer: 37 µM (≈ 14.3 µg/mL)

Question: And the MIC [12]?
Answer: 37 µM (≈ 14.3 µg/mL)

Question: And the MIC [13]?
Answer: 37 µM (≈ 14.3 µg/mL)

Question: And the MIC [14]?
Answer: 12.5 µM (≈ 4.84 µg/mL)

Question: What about the MIC [15] of the same compound?
Answer: 12.5 µM (≈ 4.84 µg/mL)

Question: What about the MIC90 [16] of the same compound?
Answer: 25 µM (≈ 9.67 µg/mL)

Question: And the MIC90 [17]?
Answer: 25 µM (≈ 9.67 µg/mL)

Question: What about the MIC90 [18] of the same compound?
Answer: > 50 µM

Question: What about the MIC [19] of the same compound?
Answer: > 50 µM

Question: And the CC50 (HepG2 [20])?
Answer: > 50000 nM

Question: And the CC50 (HepG2 [21])?
Answer: > 50000 nM

— ChEMBL document CHEMBL3832761, “MMV Pathogen Box Bioactivity Data” (2017)
